{"source": "patent US10501492B2", "about": "“Antibiotic compounds” (priority 2009, dated 2019)", "key": {"S. aureus": {"test_system": "S. aureus", "assay": "MIC determination, Macro-broth dilution method (NCCLS)", "assay_type": "cell-based, Staphylococcus aureus", "source_text": "(§1) The in-vitro potency was established by minimum inhibitory concentration (MIC) determinations of the compounds of Formula I(a) and Formula I(b) against bacterial strains, by using the Macro-broth dilution method as per National Committee for Clinical Laboratory Standards (2000) guidelines (Methods for Dilution Antimicrobial Susceptibility Tests for Bacteria that Grow Aerobically—Fifth Edition: Approved Standard M7-A5. NCCLS, Wayne, Pa., USA). Mueller-Hinton broth was used as nutrient medium for the assay, unless stated otherwise. PM181104 (PCT publication no. WO2007119201) was used as known standard in all in-vitro experiments. For preparation of the stock solution the compounds of Formula I(a) and Formula I(b) were dissolved in chloroform (5% of the total required volume) and diluted using methanol (95% of the total required volume)."}, "S. epidermidis": {"test_system": "S. epidermidis", "assay": "MIC determination, Macro-broth dilution method (NCCLS)", "assay_type": "cell-based, Staphylococcus epidermidis", "source_text": "as §1"}, "E. faecium": {"test_system": "E. faecium", "assay": "MIC determination, Macro-broth dilution method (NCCLS)", "assay_type": "cell-based, Enterococcus faecium", "settings": "for Minimal Inhibitory Concentration: E. faecium, R-2 (VRE) (Table 5)", "source_text": "as §1"}, "Bacillus cereus (121)": {"test_system": "Bacillus cereus (121)", "assay": "MIC determination, Macro-broth dilution method (NCCLS)", "assay_type": "cell-based", "source_text": "as §1"}, "[1]": {"test_system": "Bacillus megaterium FH1127 (124)", "assay": "MIC determination, Macro-broth dilution method (NCCLS)", "assay_type": "cell-based", "source_text": "as §1"}, "[2]": {"test_system": "Bacillus subtilis ATCC 6633 (123)", "assay": "MIC determination, Macro-broth dilution method (NCCLS)", "assay_type": "cell-based", "source_text": "as §1"}, "M. tuberculosis H37Rv": {"test_system": "M. tuberculosis H37Rv", "assay": "Antimycobacterial activity, Luciferase reporter phage assay", "assay_type": "cell-based, Mycobacterium tuberculosis", "settings": "72 hours"}, "[3]": {"assay": "Solubility (physical properties)"}, "[4]": {"settings": "S. aureus 209P (MSSA) (Table 5)"}, "[5]": {"settings": "S. aureus E710, (MRSA) (Table 5)"}, "[6]": {"settings": "in chloroform, ethyl acetate, methanol"}}}
{"smiles": "C=C(NC(=O)C(=C)NC(=O)c1csc(C2=NC3c4csc(n4)C4NC(=O)c5csc(n5)C(C(C)(O)C(C)O)NC(=O)C5CSC(=N5)/C(=C\\C)NC(=O)C(C(C)O)NC(=O)c5csc(n5)C3(CC2)NC(=O)C(C)NC(=O)C(=C)NC(=O)C(C)NC(=O)C(C(C)C)NC2C=Cc3c(C(C)O)cc(nc3C2O)C(=O)OC4C)n1)C(N)=O", "note": "(stereo not shown) [Compound of Formula I(a)]", "values": [{"measurement": "Minimal Inhibitory Concentration", "setting": "S. aureus; [4]", "value": "0.064 to 0.125", "unit": "µg/mL"}, {"measurement": "MIC", "setting": "S. aureus; S. aureus 209 P, MSSA (Table 4)", "value": 0.063, "unit": "µg/mL"}, {"measurement": "MIC", "setting": "S. aureus; S. aureus 503, MRSA, 62", "value": ">1", "unit": "µg/mL"}, {"measurement": "MIC", "setting": "S. aureus; S. aureus 789, MRSA, 64", "value": ">1", "unit": "µg/mL"}, {"measurement": "MIC", "setting": "S. aureus; S. aureus ATCC 33591, MRSA", "value": 0.125, "unit": "µg/mL"}, {"measurement": "MIC", "setting": "S. aureus; S. aureus C1 MRSA 2", "value": 0.25, "unit": "µg/mL"}, {"measurement": "MIC", "setting": "S. aureus; S. aureus C1 MRSA 3", "value": 0.25, "unit": "µg/mL"}, {"measurement": "MIC", "setting": "S. aureus; S. aureus C1 MRSA 5", "value": 0.25, "unit": "µg/mL"}, {"measurement": "MIC", "setting": "S. aureus; S. aureus C1 MRSA 7", "value": 0.125, "unit": "µg/mL"}, {"measurement": "MIC", "setting": "S. aureus; S. aureus C1 MRSA 8", "value": 0.25, "unit": "µg/mL"}, {"measurement": "MIC", "setting": "S. aureus; S. aureus C1 MRSA 9", "value": 0.25, "unit": "µg/mL"}, {"measurement": "MIC", "setting": "S. aureus; S. aureus C1 MRSA 10", "value": 0.25, "unit": "µg/mL"}, {"measurement": "MIC", "setting": "S. aureus; S. aureus C1 MRSA 13", "value": 0.25, "unit": "µg/mL"}, {"measurement": "MIC", "setting": "S. aureus; S. aureus C1 MRSA 16", "value": 0.25, "unit": "µg/mL"}, {"measurement": "MIC", "setting": "S. aureus; S. aureus C1 MRSA 17", "value": 0.125, "unit": "µg/mL"}, {"measurement": "MIC", "setting": "S. aureus; S. aureus C1 MRSA 20", "value": 0.125, "unit": "µg/mL"}, {"measurement": "MIC", "setting": "S. aureus; S. aureus C1 MRSA 21", "value": 0.125, "unit": "µg/mL"}, {"measurement": "MIC", "setting": "S. aureus; S. aureus C1 MRSA 22", "value": 0.25, "unit": "µg/mL"}, {"measurement": "MIC", "setting": "S. aureus; S. aureus C1 MRSA 23", "value": 0.016, "unit": "µg/mL"}, {"measurement": "MIC", "setting": "S. aureus; S. aureus C1 MRSA 24", "value": 0.25, "unit": "µg/mL"}, {"measurement": "MIC", "setting": "S. aureus; S. aureus C1 MRSA 25", "value": 0.15, "unit": "µg/mL"}, {"measurement": "Minimal Inhibitory Concentration", "setting": "S. aureus; [5]", "value": 0.125, "unit": "µg/mL"}, {"measurement": "MIC", "setting": "S. aureus; S. aureus E710, MRSA (Table 4)", "value": 0.125, "unit": "µg/mL"}, {"measurement": "MIC", "setting": "S. aureus; S. aureus E712, MRSA Erythro^R, 59", "value": 0.25, "unit": "µg/mL"}, {"measurement": "MIC", "setting": "S. aureus; S. aureus KEM MRSA 1", "value": 0.25, "unit": "µg/mL"}, {"measurement": "MIC", "setting": "S. aureus; S. aureus KEM MRSA 2", "value": 0.25, "unit": "µg/mL"}, {"measurement": "MIC", "setting": "S. aureus; S. aureus KEM MRSA 3", "value": 0.25, "unit": "µg/mL"}, {"measurement": "MIC", "setting": "S. aureus; S. aureus KEM MRSA 4", "value": 0.125, "unit": "µg/mL"}, {"measurement": "MIC", "setting": "S. aureus; S. aureus KEM MRSA 5", "value": 0.125, "unit": "µg/mL"}, {"measurement": "MIC", "setting": "S. aureus; S. aureus MRSA 3 lilavati", "value": 0.125, "unit": "µg/mL"}, {"measurement": "MIC", "setting": "S. aureus; S. aureus Misk MRSA 35", "value": 0.125, "unit": "µg/mL"}, {"measurement": "MIC", "setting": "S. aureus; S. aureus Misk MRSA 37", "value": 0.125, "unit": "µg/mL"}, {"measurement": "MIC", "setting": "S. aureus; S. aureus Misk MRSA 38", "value": 0.125, "unit": "µg/mL"}, {"measurement": "MIC", "setting": "S. aureus; S. aureus SG 511, MRSA, 63", "value": 1, "unit": "µg/mL"}, {"measurement": "MIC", "setting": "S. epidermidis; S. epidermidis 823, Teicho^R, 230", "value": 0.25, "unit": "µg/mL"}, {"measurement": "MIC", "setting": "S. epidermidis; S. epidermidis 2361 W, 246", "value": 0.25, "unit": "µg/mL"}, {"measurement": "MIC", "setting": "S. epidermidis; S. epidermidis 4264 I (1) W, 247", "value": 0.125, "unit": "µg/mL"}, {"measurement": "MIC", "setting": "S. epidermidis; S. epidermidis 6098, Erythro^R, 233", "value": ">1", "unit": "µg/mL"}, {"measurement": "MIC", "setting": "S. epidermidis; S. epidermidis 6729 II W, Erythro^R, 236", "value": 0.125, "unit": "µg/mL"}, {"measurement": "MIC", "setting": "S. epidermidis; S. epidermidis Pat 01 IV, 251", "value": 0.25, "unit": "µg/mL"}, {"measurement": "MIC", "setting": "E. faecium; E. faecium C1 VRE 26", "value": 0.25, "unit": "µg/mL"}, {"measurement": "MIC", "setting": "E. faecium; E. faecium C1 VRE 27", "value": 0.25, "unit": "µg/mL"}, {"measurement": "MIC", "setting": "E. faecium; E. faecium C1 VRE 28", "value": 0.125, "unit": "µg/mL"}, {"measurement": "MIC", "setting": "E. faecium; E. faecium C1 VRE 31", "value": 0.5, "unit": "µg/mL"}, {"measurement": "MIC", "setting": "E. faecium; E. faecium C1 VRE 33", "value": 0.125, "unit": "µg/mL"}, {"measurement": "MIC", "setting": "E. faecium; E. faecium C1 VRE 34", "value": 0.25, "unit": "µg/mL"}, {"measurement": "MIC", "setting": "E. faecium; E. faecium KEM VRE 1", "value": 0.25, "unit": "µg/mL"}, {"measurement": "MIC", "setting": "E. faecium; E. faecium KEM VRE 2", "value": 0.5, "unit": "µg/mL"}, {"measurement": "MIC", "setting": "E. faecium; E. faecium KEM VRE 3", "value": 0.25, "unit": "µg/mL"}, {"measurement": "MIC", "setting": "E. faecium; E. faecium KEM VRE 4", "value": 0.5, "unit": "µg/mL"}, {"measurement": "MIC", "setting": "E. faecium; E. faecium KEM VRE 5", "value": 0.25, "unit": "µg/mL"}, {"measurement": "MIC", "setting": "E. faecium; E. faecium R-2 (VRE) (Table 4)", "value": 0.25, "unit": "µg/mL"}, {"measurement": "Minimal Inhibitory Concentration", "setting": "E. faecium", "value": 0.125, "unit": "µg/mL"}, {"measurement": "MIC", "setting": "E. faecium; Enterococcus faecium, VSE (322)", "value": 0.125, "unit": "µg/mL"}, {"measurement": "MIC", "setting": "Bacillus cereus (121)", "value": 0.031, "unit": "µg/mL"}, {"measurement": "MIC", "setting": "[1]", "value": 0.125, "unit": "µg/mL"}, {"measurement": "MIC", "setting": "[2]", "value": 0.031, "unit": "µg/mL"}, {"measurement": "% reduction in RLU", "setting": "M. tuberculosis H37Rv; 0.5 μg/mL", "value": 36.36, "unit": "%"}, {"measurement": "% reduction in RLU", "setting": "M. tuberculosis H37Rv; 5 μg/mL", "value": 77.17, "unit": "%"}, {"measurement": "% reduction in RLU", "setting": "M. tuberculosis H37Rv; 10 μg/mL", "value": 83.76, "unit": "%"}, {"measurement": "Solubility", "setting": "[3]; [6]", "value": "Soluble"}, {"measurement": "Solubility", "setting": "[3]; in water", "value": "insoluble"}]}
{"smiles": "C=C(NC(=O)c1csc(C2=NC3c4csc(n4)C4NC(=O)c5csc(n5)C(C(C)(O)C(C)O)NC(=O)C5CSC(=N5)/C(=C\\C)NC(=O)C(C(C)O)NC(=O)c5csc(n5)C3(CC2)NC(=O)C(C)NC(=O)C(=C)NC(=O)C(C)NC(=O)C(C(C)C)NC2C=Cc3c(C(C)O)cc(nc3C2O)C(=O)OC4C)n1)C(=O)NC(C)C(N)=O", "note": "(stereo not shown) [Compound of Formula I(b)]", "values": [{"measurement": "Minimal Inhibitory Concentration", "setting": "S. aureus; [4]", "value": "0.25 to 0.5", "unit": "µg/mL"}, {"measurement": "Minimal Inhibitory Concentration", "setting": "S. aureus; [5]", "value": 2, "unit": "µg/mL"}, {"measurement": "Minimal Inhibitory Concentration", "setting": "E. faecium", "value": 2, "unit": "µg/mL"}, {"measurement": "% reduction in RLU", "setting": "M. tuberculosis H37Rv; 0.5 μg/mL", "value": 28.87, "unit": "%"}, {"measurement": "% reduction in RLU", "setting": "M. tuberculosis H37Rv; 5 μg/mL", "value": 54.83, "unit": "%"}, {"measurement": "% reduction in RLU", "setting": "M. tuberculosis H37Rv; 10 μg/mL", "value": 76.73, "unit": "%"}, {"measurement": "Solubility", "setting": "[3]; [6]", "value": "Soluble"}, {"measurement": "Solubility", "setting": "[3]; in water", "value": "insoluble"}]}
